From the NIST ThermoML archive (doi:10.1016/j.fluid.2014.11.026)
“And” between values parts separate entries of the source, which are not always exact repeats. Equal values may be shown once.

Conditions: Closed cell (Static) method

c1ccc2ccccc2c1 [naphthalene]
Crystal
Conditions | vapor or sublimation pressure [kPa]
297.72 K | 0.01042
300.06 K | 0.0131
302.47 K | 0.01651
304.88 K | 0.02077
307.27 K | 0.02598
309.69 K | 0.03247
312.35 K | 0.04107
314.78 K | 0.05102
317.21 K | 0.06281
319.66 K | 0.0774
322.08 K | 0.0949
324.51 K | 0.1161
326.97 K | 0.1415

C=CC(C)(O)CCC=C(C)C (stereo not drawn) [3,7-dimethyl-1,6-octadien-3-ol]
Liquid
Conditions | vapor or sublimation pressure
284.62 K | 0.006422 kPa
286.91 K | 0.008001 kPa
289.26 K | 0.01007 kPa
291.61 K | 0.01262 kPa
294.02 K | 0.01583 kPa
296.39 K | 0.01969 kPa and 0.01967 kPa
298.77 K | 0.0242 kPa
301.14 K | 0.02977 kPa
301.2 K | 0.02999 kPa
303.59 K | 0.03677 kPa
305.95 K | 0.04473 kPa
305.99 K | 0.04494 kPa
308.38 K | 0.05475 kPa
310.74 K | 0.0661 kPa
310.78 K | 0.06649 kPa
313.18 K | 0.08076 kPa
316.23 K | 0.1024 kPa
321.01 K | 0.1464 kPa
325.83 K | 0.2062 kPa
330.68 K | 0.2877 kPa
335.48 K | 0.394 kPa
340.29 K | 0.5345 kPa
342.71 K | 0.6231 kPa
345.69 K | 0.7489 kPa
348.12 K | 0.8693 kPa
350.51 K | 0.9921 kPa
352.9 K | 1.136 kPa

CC(=O)CCC=C(C)C [6-methyl-5-hepten-2-one]
Liquid
Conditions | vapor or sublimation pressure
283.85 K | 0.05465 kPa
283.86 K | 0.05482 kPa and 0.05462 kPa
283.92 K | 0.05498 kPa
286.18 K | 0.06551 kPa
286.23 K | 0.06608 kPa
286.24 K | 0.06599 kPa
288.57 K | 0.07931 kPa
288.59 K | 0.07922 kPa
288.61 K | 0.07945 kPa
288.69 K | 0.07994 kPa
290.97 K | 0.09477 kPa
291 K | 0.09535 kPa
291.02 K | 0.09517 kPa
293.47 K | 0.1142 kPa
293.49 K | 0.1148 kPa
295.81 K | 0.1358 kPa
295.85 K | 0.1362 kPa
295.88 K | 0.1365 kPa
298.28 K | 0.1619 kPa
298.31 K | 0.1623 kPa
300.61 K | 0.1903 kPa
300.65 K | 0.1915 kPa
300.69 K | 0.1919 kPa
303.12 K | 0.2264 kPa
303.15 K | 0.2273 kPa
305.45 K | 0.2654 kPa
305.48 K | 0.2664 kPa
305.54 K | 0.2673 kPa
307.99 K | 0.3137 kPa
308.02 K | 0.3147 kPa
310.3 K | 0.3637 kPa
310.36 K | 0.3668 kPa
310.42 K | 0.3665 kPa
312.88 K | 0.4306 kPa
312.9 K | 0.4306 kPa
315.16 K | 0.4939 kPa
315.23 K | 0.4983 kPa
315.28 K | 0.4979 kPa
317.72 K | 0.5789 kPa
317.75 K | 0.5801 kPa
320.01 K | 0.6665 kPa
320.07 K | 0.6684 kPa
320.13 K | 0.6684 kPa
322.5 K | 0.769 kPa
322.52 K | 0.7718 kPa
322.56 K | 0.7724 kPa
324.84 K | 0.8831 kPa
324.89 K | 0.8852 kPa
324.93 K | 0.8864 kPa
327.28 K | 1.015 kPa
327.32 K | 1.015 kPa
327.36 K | 1.016 kPa

CCCCC(=O)CCCC [5-nonanone]
Liquid
Conditions | vapor or sublimation pressure [kPa]
283.83 K | 0.02528
283.85 K | 0.02535
286.19 K | 0.03083
288.55 K | 0.03722
290.9 K | 0.04494
293.32 K | 0.05439
293.35 K | 0.0544
295.75 K | 0.06539
298.1 K | 0.07793
298.12 K | 0.0783
300.56 K | 0.09349
302.92 K | 0.1107
302.94 K | 0.111
305.38 K | 0.1321
307.75 K | 0.1553
307.77 K | 0.1559
310.19 K | 0.1839
312.99 K | 0.2228
313.02 K | 0.2225
315 K | 0.2527
315.38 K | 0.2591
317.8 K | 0.3037
317.81 K | 0.3041
320.16 K | 0.3527
320.18 K | 0.3545
322.58 K | 0.4099
322.62 K | 0.4118
324.99 K | 0.476
325.05 K | 0.4746
327.44 K | 0.5474
327.49 K | 0.5494
329.9 K | 0.6318
329.95 K | 0.638
332.32 K | 0.7257
332.35 K | 0.7296
334.71 K | 0.8311
334.74 K | 0.8375
337.13 K | 0.9562
337.15 K | 0.9511

O=C(O)c1ccccc1 [benzoic acid]
Crystal
Conditions | vapor or sublimation pressure [kPa]
297.67 K | 0.000108
299.96 K | 0.000142
300.03 K | 0.000143
302.51 K | 0.000193
304.75 K | 0.00025
307.27 K | 0.000335
309.63 K | 0.000436
312.08 K | 0.000573
314.4 K | 0.000738
314.59 K | 0.000754
316.91 K | 0.000969
319.48 K | 0.00127
321.91 K | 0.001641
324.39 K | 0.002118
326.76 K | 0.002676
329.2 K | 0.003432
331.62 K | 0.004361
334.07 K | 0.005542
336.46 K | 0.006934
338.98 K | 0.008733

[CH]1C=CC=C1.[CH]1C=CC=C1.[Fe] [ferrocene]
Crystal
Conditions | vapor or sublimation pressure [kPa]
280.91 K | 0.000154
282.03 K | 0.000176
283.33 K | 0.000202
284.44 K | 0.000229
285.74 K | 0.000264
286.87 K | 0.000298
288.14 K | 0.000344
289.31 K | 0.000388
290.59 K | 0.000447
291.71 K | 0.000501
293.03 K | 0.000576
294.12 K | 0.000646
295.42 K | 0.000741
296.52 K | 0.000829
297.8 K | 0.000942
297.83 K | 0.000947
300.23 K | 0.001197
300.35 K | 0.001218
302.84 K | 0.001542
304.06 K | 0.001742
304.13 K | 0.001753
305.54 K | 0.002007
307.9 K | 0.002499
311.31 K | 0.003428
312.99 K | 0.00399
315.35 K | 0.004949
316.48 K | 0.005493
317.93 K | 0.006236
319.06 K | 0.006868
320.29 K | 0.007672
320.95 K | 0.008091
321.69 K | 0.008661
322.63 K | 0.00937
324 K | 0.01056
325.29 K | 0.01176
325.31 K | 0.0117
327.79 K | 0.01447
330.22 K | 0.01764
331.21 K | 0.01908
332.72 K | 0.0215
335.15 K | 0.02616
336.4 K | 0.02867
337.89 K | 0.03234
340.33 K | 0.03875
341.35 K | 0.04176
342.83 K | 0.04685
345.27 K | 0.05631
346.28 K | 0.06042
347.77 K | 0.06739
350.23 K | 0.08052
351.2 K | 0.08649
352.7 K | 0.09579
355.17 K | 0.1142
357.88 K | 0.1377
360.37 K | 0.1622
362.8 K | 0.1914
365.3 K | 0.2244
367.75 K | 0.2639
370.2 K | 0.3093
372.93 K | 0.3682
375.4 K | 0.425
377.87 K | 0.4978
380.32 K | 0.5748
382.8 K | 0.6695
385.27 K | 0.7725
387.75 K | 0.8978
390.22 K | 1.03
392.69 K | 1.185

O=C(c1ccccc1)c1ccccc1 [benzophenone]
Conditions | vapor or sublimation pressure [kPa]
300.37 K, Crystal | 0.000119
302.88 K, Crystal | 0.000161
302.91 K, Liquid | 0.000237
305.39 K, Crystal | 0.00022
305.41 K, Liquid | 0.000306
307.9 K, Crystal | 0.000302
307.91 K, Liquid | 0.000394
310.26 K, Crystal | 0.000401
310.41 K, Liquid | 0.000503
312.75 K, Crystal | 0.000535
315.24 K, Crystal | 0.000708
317.73 K, Crystal | 0.000939
318.01 K, Liquid | 0.001028
320.23 K, Crystal | 0.001239
320.51 K, Liquid | 0.001288
323.09 K, Liquid | 0.001615
325.59 K, Liquid | 0.002005
328.11 K, Liquid | 0.002469
330.61 K, Liquid | 0.003064
333.13 K, Liquid | 0.003771
335.64 K, Liquid | 0.00461
338.16 K, Liquid | 0.005616
340.68 K, Liquid | 0.006814
343.21 K, Liquid | 0.008284
345.73 K, Liquid | 0.009949
348.24 K, Liquid | 0.01196
350.76 K, Liquid | 0.01435
353.28 K, Liquid | 0.01704
355.79 K, Liquid | 0.02035
358.31 K, Liquid | 0.02415
360.82 K, Liquid | 0.02859
363.34 K, Liquid | 0.03356
368.37 K, Liquid | 0.04652
370.89 K, Liquid | 0.0543
